Reference: article PMC10348910, “Epigenetic reprogramming of cell cycle genes by ACK1 promotes breast cancer resistance to CDK4/6 inhibitor” (Oncogene, 2023)

Tests used:
BT549 = assay: proliferation assay, trypan blue exclusion; assay type: cell-based; details: BT549 (lacking Rb), 96 h
Method: (§1) A–F Breast cancer cells were treated with either vehicle or (R)-9b for 48 h; cells were harvested and processed for cell cycle analysis using propidium iodide staining, followed by flow cytometry. G BT549 and H MDA-MB-468 cells were treated with varying drug concentrations of palbociclib or (R)-9b for 96 h and the cell viability assessed using trypan blue exclusion method. I BT549, and J MDA-MB-468 cells were treated with 1 µM palbociclib or (R)-9b for 48 h and subjected to cell cycle analysis using propidium iodide staining, followed by flow-cytometry. Palbociclib-resistant MDA-MB-231 (K) and HCC-1395 (L) were generated and treated with varying drug concentrations of palbociclib or (R)-9b for 96 h and the cell viability assessed using trypan blue exclusion method.
(§2) For proliferation assay, 5 × 10^4 cells were plated in 6-well plate and treated with either vehicle (DMSO) or varying concentrations of (R)-9b or palbociclib in complete media for 96 h and number of viable cells were counted by trypan blue exclusion assay. Breast cancer cell lines were treated with vehicle or varying concentrations of (R)-9b for 72 h. The cells were harvested, washed 2 times with PBS and incubated with 3 ul of Annexin V-FITC antibody according to the manufacturers protocol (BD Biosciences). Five µl Propidium iodide was used to stain necrotic cells. The cells were acquired using the BD FACSCalibur machine (BD Biosciences) and data was analyzed using FlowJo software. Cell cycle analysis was performed as mentioned earlier. Briefly, vehicle or (R)-9b (48 h) treated cells were harvested by trypsinization, washed 2 times with PBS, and fixed using chilled 70% Ethanol for 1 h, followed by 2 washes with PBS. The cell pellets were treated with 50 µl RNase A (100 µg/ml; Sigma) for 15 min at 37 °C and Propidium Iodide (PI; 50 µg/ml, Sigma) was added to these cells, followed by acquisition using BD FACS Canto-II or FACSCalibur machines. The data were analyzed using FlowJo software.

MDA-MB-468 = assay: proliferation assay, trypan blue exclusion; assay type: cell-based; details: MDA-MB-468 (lacking Rb), 96 h
Method: as §1, §2

[1] = tested on: pY88-H4 marks at CDC20, CCNB1 and CCNB2; assay: ChIP-qPCR with pY88-H4 antibody at CDC20, CCNB1 and CCNB2 loci; assay type: cell-based; details: breast cancer cell lines
Method: Fig. 4 ACK1 epigenetically modifies the chromatin landscape by depositing pY88-H4 activating marks, regulating cell cycle genes. A Breast cancer cell lines were treated with (R)-9b overnight and the cell lysates were subjected to immunoprecipitation using pY88-H4 antibody, followed by immunoblotting with H4 antibody. Lysates were also subjected to immunoblotting with total H4 and Actin antibodies, shown in the lower panels. […] B Venn diagrams summarizing the overlap between sites bound by pY88-H4 in vehicle treated and (R)-9b treated MDA-MB-453 cells. […] Breast cancer cells were subjected to ChIP using pY88-H4 antibody followed by qPCR for (D) CCNB1, (E) CCNB2, and (F) CDC20 genes. […]
Cell pellets were resuspended in RLB buffer and sonicated and the soluble chromatin was incubated with antibodies and Protein-G/A magnetic beads. […] The size and quality of the library was evaluated using the Agilent BioAnalyzer (Agilent Technologies, Inc., Santa Clara, CA), and the library was quantitated with the Kapa Library Quantification Kit. Each enriched DNA library was then sequenced on an Illumina NextSeq 500 sequencer to generate 40–50 million 75-base paired-end reads (Illumina, Inc., San Diego, CA). […]
Real-time quantitative PCR analyses were performed using the ABI PRISM 7900HT Sequence Detection System (Applied Biosystems) as described earlier. […]

phospho-serine 139-γH2AX = assay: γH2AX immunocytochemistry; assay type: cell-based; details: breast cancer cell lines, 48h
Method: Breast cancer cells were grown over coverslips and treated with vehicle or (R)-9b. The cells were fixed in 2% paraformaldehyde and permeabilized. The cells were stained with phospho-serine 139-γH2AX antibody (Red), phalloidin (green) and DAPI. Fluorescent microscopic images were captured. […]
breaks in breast cancer cell lines
Breast cancer cell lines were treated with either vehicle or (R)-9b for 48h and stained with phospho-serine 139-γH2AX antibody (Red), phalloidin (green) and DAPI. Representative images of fluorescent microscopic analysis are shown.

[2] = tested on: prostate cancer cell lines; set-up: method as in PMID 28609657; details: various prostate cancer cell lines; cited from earlier work

## CN1CCN(c2ccc(Nc3ncc(Cl)c(NC[C@H]4CCCO4)n3)cc2)CC1 [(R)-9b]
BT549
  sensitivity (cell proliferation): sensitive
MDA-MB-468
  sensitivity (cell proliferation): sensitive
[1]
  pY88-H4 marks at CDC20, CCNB1 and CCNB2 gene loci (ChIP-qPCR): significantly compromised
phospho-serine 139-γH2AX
  γH2AX staining (DNA damage, double strand breaks): poor γH2AX staining
[2]
  IC50: 400 nM
